# Values of other authors, collected in patent US11147777B1, “Methods and formulations for efficacious pain relief by transdermal delivery of cannabidiol” (CHARLOTTE'S WEB, INC., priority 2017, dated 2021).
# Biological target: T1, mTRPM8 (Mus musculus, UniProt Q8R4D5)
# T1 construct: expressed in transfected cells; host or cells: HEK293
# Conditions: normalized to the efficacy of icilin, as disclosed by Behrendt et al.
# T1 sequence (Q8R4D5 whole entry): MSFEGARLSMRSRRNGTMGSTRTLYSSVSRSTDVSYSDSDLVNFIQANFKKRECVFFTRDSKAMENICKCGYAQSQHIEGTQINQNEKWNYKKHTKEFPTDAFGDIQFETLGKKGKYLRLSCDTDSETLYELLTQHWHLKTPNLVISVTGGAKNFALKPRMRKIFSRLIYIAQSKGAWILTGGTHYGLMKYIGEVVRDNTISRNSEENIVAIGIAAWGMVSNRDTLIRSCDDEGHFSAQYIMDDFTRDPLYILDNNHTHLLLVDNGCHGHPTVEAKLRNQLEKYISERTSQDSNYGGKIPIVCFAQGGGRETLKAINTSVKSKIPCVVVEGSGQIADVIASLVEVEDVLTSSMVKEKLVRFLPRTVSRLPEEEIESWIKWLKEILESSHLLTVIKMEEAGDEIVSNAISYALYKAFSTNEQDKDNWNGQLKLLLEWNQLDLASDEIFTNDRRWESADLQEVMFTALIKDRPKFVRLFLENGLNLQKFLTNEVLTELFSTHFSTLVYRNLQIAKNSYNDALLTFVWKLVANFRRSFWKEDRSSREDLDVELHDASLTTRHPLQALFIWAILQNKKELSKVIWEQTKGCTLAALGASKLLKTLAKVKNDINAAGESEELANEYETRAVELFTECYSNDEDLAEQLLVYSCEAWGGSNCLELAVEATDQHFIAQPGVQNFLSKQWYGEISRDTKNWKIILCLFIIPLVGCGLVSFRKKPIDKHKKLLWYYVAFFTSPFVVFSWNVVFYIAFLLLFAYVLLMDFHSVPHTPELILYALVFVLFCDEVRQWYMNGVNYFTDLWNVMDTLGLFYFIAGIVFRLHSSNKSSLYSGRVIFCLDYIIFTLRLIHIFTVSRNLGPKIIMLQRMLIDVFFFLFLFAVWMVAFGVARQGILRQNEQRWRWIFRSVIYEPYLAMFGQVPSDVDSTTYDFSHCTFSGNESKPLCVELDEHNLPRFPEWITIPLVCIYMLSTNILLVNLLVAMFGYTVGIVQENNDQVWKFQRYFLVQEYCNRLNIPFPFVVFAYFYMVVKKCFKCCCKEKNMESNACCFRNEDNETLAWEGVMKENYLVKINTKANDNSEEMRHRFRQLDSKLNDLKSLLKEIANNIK
structure (smiles),measurement,value
CC1CCC(C(C)C)C(O)C1 (stereo not shown) [menthol],relative efficacy as TRPM8 agonist on icilin-normalized scale (100 menthol = 70 icilin),70
